Target: T1, Chemerin-like receptor 1 (Homo sapiens, UniProt Q99788)
T1 sequence (Q99788 whole entry): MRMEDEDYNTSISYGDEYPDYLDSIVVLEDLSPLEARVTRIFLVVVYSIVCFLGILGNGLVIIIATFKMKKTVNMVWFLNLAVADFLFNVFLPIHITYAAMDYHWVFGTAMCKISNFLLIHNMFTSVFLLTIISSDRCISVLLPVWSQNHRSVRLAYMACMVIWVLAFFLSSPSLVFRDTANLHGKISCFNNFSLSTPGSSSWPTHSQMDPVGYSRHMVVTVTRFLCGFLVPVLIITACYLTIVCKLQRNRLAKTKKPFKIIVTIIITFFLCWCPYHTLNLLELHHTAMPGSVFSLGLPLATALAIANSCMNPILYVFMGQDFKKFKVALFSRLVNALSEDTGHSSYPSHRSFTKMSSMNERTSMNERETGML
Experiment: Displacement of [125I]-chemerin from ChemR23 (unknown origin) transfected in mouse BaF3 cells after 3 hrs by scintillation counting method
Assay type: cell-based

| IC50 | SMILES |
| --- | --- |
| ≤ 30 nM | C=C(C)CC1(C(=O)Nc2cc(C(F)(F)F)cc(C(F)(F)F)c2)CC(=O)N(c2c(C)cccc2C)C1 (stereo unspecified) |
| ≤ 30 nM | CC[C@@]1(C(=O)Nc2cc(OC(C)C)cc(C(F)(F)F)c2)CN(c2c(C)cccc2C)C(=O)[C@H]1C |
| 30 to 300 nM | CC[C@@]1(C(=O)Nc2cc(N3CCCC3)cc(C(F)(F)F)c2)CN(c2c(C)cccc2C)C(=O)[C@H]1C |
| ≤ 30 nM | CC[C@@]1(C(=O)Nc2cc(OC3CCC3)cc(C(F)(F)F)c2)CN(c2c(C)cccc2C)C(=O)[C@H]1C |
| 30 to 300 nM | Cc1ccccc1N1CC(C(=O)Nc2cc(C3CC3)cc(C(F)(F)F)c2)(C(C)C)CC1=O (stereo unspecified) |
| 30 to 300 nM | Cc1cccc(C)c1N1CC(Cc2ncc[nH]2)(C(=O)Nc2cc(C(F)(F)F)cc(C(F)(F)F)c2)CC1=O (stereo unspecified) |
| 30 to 300 nM | Cc1cccc(C)c1N1C[C@](C(=O)Nc2cc(C(F)(F)F)cc(C(F)(F)F)c2)(C2CCOCC2)[C@@H](C)C1=O |
| ≤ 30 nM | Cc1cccc(Br)c1N1CC(C(=O)Nc2cc(C(F)(F)F)cc(C(F)(F)F)c2)(C(C)C)CC1=O (stereo unspecified) |
| ≤ 30 nM | Cc1cccc(C)c1N1CC(C(=O)Nc2cc(C(F)(F)F)cc(C(F)(F)F)c2)(C2CCC2)CC1=O (stereo unspecified) |
| ≤ 30 nM | C=CCc1cccc(C)c1N1CC(C(=O)Nc2cc(C(F)(F)F)cc(C(F)(F)F)c2)(C(C)C)CC1=O (stereo unspecified) |
| 300 to 6000 nM | Cc1cccc(C)c1N1CC(CN2CCCC2)(C(=O)Nc2cc(C(F)(F)F)cc(C(F)(F)F)c2)CC1=O (stereo unspecified) |
| 30 to 300 nM | Cc1cccc(CN2CCOCC2)c1N1CC(C(=O)Nc2cc(C(F)(F)F)cc(C(F)(F)F)c2)(C(C)C)CC1=O (stereo unspecified) |
| 30 to 300 nM | CC[C@@]1(C(=O)Nc2cc(N(C)C)cc(C(F)(F)F)c2)CN(c2c(C)cccc2C)C(=O)[C@H]1C |
| 300 to 6000 nM | CC[C@@]1(C(=O)Nc2cc(CN3CCOCC3)cc(C(F)(F)F)c2)CN(c2c(C)cccc2C)C(=O)[C@H]1C |
| 300 to 6000 nM | CCC1(C(=O)Nc2cc(C(F)(F)F)cc(C(F)(F)F)c2)CC(=O)N(c2ccccc2OC)C1 (stereo unspecified) |
| 300 to 6000 nM | CC(C)C1(C(=O)Nc2cc(C(F)(F)F)cc(C(F)(F)F)c2)CC(=O)N(c2ccccc2CN2CCOCC2)C1 (stereo unspecified) |
| 30 to 300 nM | CC[C@@]1(C(=O)Nc2cc(OC)cc(C(F)(F)F)c2)CN(c2c(C)cccc2C)C(=O)[C@H]1C |
| 30 to 300 nM | CC[C@@]1(C(=O)Nc2cc(C(F)(F)F)cc(C(F)(F)F)c2)CC(=O)N(c2c(C)cccc2C)C1 |
| ≤ 30 nM | Cc1cccc(C)c1N1CC(C(=O)Nc2cc(Br)cc(C(F)(F)F)c2)(C(C)C)CC1=O (stereo unspecified) |
| 30 to 300 nM | CCOc1cc(NC(=O)[C@]2(CC)CN(c3c(C)cccc3C)C(=O)[C@H]2C)cc(C(F)(F)F)c1 |
| ≤ 30 nM | CC[C@]1(C(=O)Nc2cc(C(F)(F)F)cc(C(F)(F)F)c2)CC(=O)N(c2c(C)cccc2C)C1 |
| 300 to 6000 nM | Cc1cccc(CCN2CCCC2)c1N1CC(C(=O)Nc2cc(C(F)(F)F)cc(C(F)(F)F)c2)(C(C)C)CC1=O (stereo unspecified) |
| ≤ 30 nM | CCC[C@@]1(C(=O)Nc2cc(C(F)(F)F)cc(C(F)(F)F)c2)CN(c2c(C)cccc2C)C(=O)[C@H]1C |
| 300 to 6000 nM | Cc1cccc(C)c1N1C[C@@](CN2CCCCC2)(C(=O)Nc2cc(C(F)(F)F)cc(C(F)(F)F)c2)[C@H](C)C1=O |
| 30 to 300 nM | CC(C)C1(C(=O)Nc2cc(C(F)(F)F)cc(C(F)(F)F)c2)CC(=O)N(c2ccccc2Cl)C1 (stereo unspecified) |
| 300 to 6000 nM | COc1ccccc1N1CC(C(=O)Nc2cc(C3CC3)cc(C(F)(F)F)c2)(C(C)C)CC1=O (stereo unspecified) |

| IC50 | SMILES |
| --- | --- |
| 30 to 300 nM | Cc1cccc(C)c1N1CC(C(=O)Nc2cc(C(F)(F)F)cc(C(F)(F)F)c2)(C(C)O)CC1=O (stereo unspecified) |
| 300 to 6000 nM | CC[C@@]1(C(=O)Nc2cc(CN3CCCC3)cc(C(F)(F)F)c2)CN(c2c(C)cccc2C)C(=O)[C@H]1C |
| 300 to 6000 nM | COCCOc1cc(NC(=O)C2(C(C)C)CC(=O)N(c3c(C)cccc3Br)C2)cc(C(F)(F)F)c1 (stereo unspecified) |
| 30 to 300 nM | CC(C)C1(C(=O)Nc2cc(C(F)(F)F)cc(C(F)(F)F)c2)CC(=O)N(c2ccccc2C2CC2)C1 (stereo unspecified) |
| ≤ 30 nM | Cc1cccc(C)c1N1CC(C(=O)Nc2cc(C(F)(F)F)cc(C(F)(F)F)c2)(C2CCSCC2)CC1=O (stereo unspecified) |
| 300 to 6000 nM | COc1cccc(C)c1N1CC(C(=O)Nc2cc(C(F)(F)F)cc(C(F)(F)F)c2)(C(C)C)CC1=O (stereo unspecified) |
| 300 to 6000 nM | CC(C)C1(C(=O)Nc2cc(C(F)(F)F)cc(C(F)(F)F)c2)CC(=O)N(c2ccccc2CO)C1 (stereo unspecified) |
| ≤ 30 nM | CC[C@@]1(C(=O)Nc2cc(Cl)cc(C(F)(F)F)c2)CN(c2c(C)cccc2C)C(=O)[C@H]1C |
| 30 to 300 nM | COCc1cccc(C)c1N1C[C@](C(=O)Nc2cc(C(F)(F)F)cc(C(F)(F)F)c2)(C(C)C)CC1=O |
| ≤ 30 nM | CCCCC1(C(=O)Nc2cc(C(F)(F)F)cc(C(F)(F)F)c2)CC(=O)N(c2c(C)cccc2C)C1 (stereo unspecified) |
| ≤ 30 nM | Cc1cccc(C)c1N1C[C@](C(=O)Nc2cc(C3CC3)cc(C(F)(F)F)c2)(C(C)C)CC1=O |
| ≤ 30 nM | CC[C@@]1(C(=O)Nc2cc(OC3CCCC3)cc(C(F)(F)F)c2)CN(c2c(C)cccc2C)C(=O)[C@H]1C |
| 30 to 300 nM | C=Cc1ccccc1N1CC(C(=O)Nc2cc(C(F)(F)F)cc(C(F)(F)F)c2)(C(C)C)CC1=O (stereo unspecified) |
| 30 to 300 nM | Cc1cccc(C)c1N1CC(CN(C)C)(C(=O)Nc2cc(C(F)(F)F)cc(C(F)(F)F)c2)CC1=O (stereo unspecified) |
| ≤ 30 nM | CC[C@@]1(C(=O)Nc2cc(C(F)(F)F)cc(C(F)(F)F)c2)CN(c2c(C)cccc2C)C(=O)[C@H]1OC |
| ≤ 30 nM | CCCC[C@@]1(C(=O)Nc2cc(C(F)(F)F)cc(C(F)(F)F)c2)CN(c2c(C)cccc2C)C(=O)[C@H]1C |
| ≤ 30 nM | Cc1cccc(C)c1N1C[C@@](CN(C)C)(C(=O)Nc2cc(C(F)(F)F)cc(C(F)(F)F)c2)[C@H](C)C1=O |
| ≤ 30 nM | Cc1cccc(C)c1N1CC(C(=O)Nc2cc(C(F)(F)F)cc(C(F)(F)F)c2)(C2CCCCC2)CC1=O (stereo unspecified) |
| 300 to 6000 nM | Cc1cccc(C)c1N1C[C@@](CN2CCCC2)(C(=O)Nc2cc(C(F)(F)F)cc(C(F)(F)F)c2)[C@H](C)C1=O |
| ≤ 30 nM | CC[C@@]1(C(=O)Nc2cc(C3CC3)cc(C(F)(F)F)c2)CN(c2c(C)cccc2C)C(=O)[C@H]1C |
| ≤ 30 nM | Cc1cccc(C)c1N1CC(CCC(C)C)(C(=O)Nc2cc(C(F)(F)F)cc(C(F)(F)F)c2)CC1=O (stereo unspecified) |
| 30 to 300 nM | Cc1cccc(F)c1N1CC(C(=O)Nc2cc(C(F)(F)F)cc(C(F)(F)F)c2)(C(C)C)CC1=O (stereo unspecified) |
| ≤ 30 nM | CC[C@@H]1C(=O)N(c2c(C)cccc2C)C[C@@]1(CC)C(=O)Nc1cc(C(F)(F)F)cc(C(F)(F)F)c1 |
| 30 to 300 nM | CC(C)C1(C(=O)Nc2cc(C3CC3)cc(C(F)(F)F)c2)CC(=O)N(c2ccccc2Cl)C1 (stereo unspecified) |
| 30 to 300 nM | C/C=C/c1ccccc1N1CC(C(=O)Nc2cc(C(F)(F)F)cc(C(F)(F)F)c2)(C(C)C)CC1=O (stereo unspecified) |
| 300 to 6000 nM | CCN(CC)C[C@@]1(C(=O)Nc2cc(C(F)(F)F)cc(C(F)(F)F)c2)CN(c2c(C)cccc2C)C(=O)[C@H]1C |

| IC50 | SMILES |
| --- | --- |
| 300 to 6000 nM | Cc1cccc(C)c1N1CC(C(=O)Nc2cc(C(F)(F)F)cc(C(F)(F)F)c2)(C2CCNC2)CC1=O (stereo unspecified) |
| 300 to 6000 nM | Cc1cccc(C)c1N1CC(C(=O)Nc2cc(C(F)(F)F)cc(C(F)(F)F)c2)(C(C)N2CCCC2)CC1=O (stereo unspecified) |
| 30 to 300 nM | Cc1cccc(C)c1N1C[C@](C(=O)Nc2cc(NC(C)C)cc(C(F)(F)F)c2)(C(C)C)[C@H](C)C1=O |
| 30 to 300 nM | CC[C@]1(C(=O)Nc2cc(Cl)cc(C(F)(F)F)c2)CC(=O)N(c2c(C)cccc2C)C1 |
| ≤ 30 nM | Cc1cccc(C)c1N1C[C@](C(=O)Nc2cc(C(F)(F)F)cc(C(F)(F)F)c2)(C2CCOCC2)[C@H](C)C1=O |
| 300 to 6000 nM | CCOCc1cccc(C)c1N1CC(C(=O)Nc2cc(C(F)(F)F)cc(C(F)(F)F)c2)(C(C)C)CC1=O (stereo unspecified) |
| ≤ 30 nM | Cc1cccc(C)c1N1C[C@@](CC(C)C)(C(=O)Nc2cc(C(F)(F)F)cc(C(F)(F)F)c2)[C@H](C)C1=O |
| 300 to 6000 nM | Cc1cccc(C)c1N1C[C@@](CN2CCOCC2)(C(=O)Nc2cc(C(F)(F)F)cc(C(F)(F)F)c2)[C@H](C)C1=O |
| 30 to 300 nM | CC[C@@]1(C(=O)Nc2cc(F)cc(C(F)(F)F)c2)CN(c2c(C)cccc2C)C(=O)[C@H]1C |
| 30 to 300 nM | Cc1cccc(CO)c1N1CC(C(=O)Nc2cc(C(F)(F)F)cc(C(F)(F)F)c2)(C(C)C)CC1=O (stereo unspecified) |
| ≤ 30 nM | Cc1cccc(C)c1N1CC(C(=O)Nc2cc(C(F)(F)F)cc(C(F)(F)F)c2)(C2CCCC2)CC1=O (stereo unspecified) |
| ≤ 30 nM | Cc1cccc(C)c1N1CC(CC2CCN(Cc3ccccc3)C2)(C(=O)Nc2cc(C(F)(F)F)cc(C(F)(F)F)c2)CC1=O (stereo unspecified) |
| 300 to 6000 nM | Cc1cccc(CCN2CCOCC2)c1N1CC(C(=O)Nc2cc(C(F)(F)F)cc(C(F)(F)F)c2)(C(C)C)CC1=O (stereo unspecified) |
| ≤ 30 nM | CC[C@@]1(C(=O)Nc2cc(C#N)cc(C(F)(F)F)c2)CN(c2c(C)cccc2C)C(=O)[C@H]1C |
| 300 to 6000 nM | Cc1cccc(CCO)c1N1CC(C(=O)Nc2cc(C(F)(F)F)cc(C(F)(F)F)c2)(C(C)C)CC1=O (stereo unspecified) |
| 30 to 300 nM | CCC(C)(C)C1(C(=O)Nc2cc(C(F)(F)F)cc(C(F)(F)F)c2)CC(=O)N(c2c(C)cccc2C)C1 (stereo unspecified) |
| ≤ 30 nM | Cc1cccc(C)c1N1C[C@@](C(=O)Nc2cc(C(F)(F)F)cc(C(F)(F)F)c2)(C(C)C)[C@H](C)C1=O |
| 300 to 6000 nM | CCC1(C(=O)Nc2cccc(C(F)(F)F)c2)CC(=O)N(c2c(C)cccc2C)C1 (stereo unspecified) |
| ≤ 30 nM | Cc1cccc(C)c1N1C[C@](C(=O)Nc2cc(C#N)cc(C(F)(F)F)c2)(C(C)C)CC1=O |
| ≤ 30 nM | CC[C@@]1(C(=O)Nc2cc(C)cc(C(F)(F)F)c2)CN(c2c(C)cccc2C)C(=O)[C@H]1C |
| ≤ 30 nM | CC[C@@]1(C(=O)Nc2cc(CN3CCCC3C(F)(F)F)cc(C(F)(F)F)c2)CN(c2c(C)cccc2C)C(=O)[C@H]1C (stereo partly specified) |
| ≤ 30 nM | Cc1cccc(C)c1N1C[C@](C(=O)Nc2cc(OC(C)C)cc(C(F)(F)F)c2)(C(C)C)CC1=O |
| 30 to 300 nM | Cc1cccc(C)c1N1C[C@](C(=O)Nc2cc(C(F)(F)F)cc(C(F)(F)F)c2)(C(C)C)[C@H](C)C1=O |
| 30 to 300 nM | C=CCc1ccccc1N1CC(C(=O)Nc2cc(C(F)(F)F)cc(C(F)(F)F)c2)(C(C)C)CC1=O (stereo unspecified) |

From ChEMBL document CHEMBL3879908, “Pyrrolidinone carboxamide derivatives” (2014)
